Laboratory results reported in patent publication US8574546B2, “Substituted aryl-fluoroborates as imaging agents” (The University of British Columbia, priority 2007, dated 2013).

Tests used:
[1] = [18F] isotope exchange of [18/19F]-(3), dissociation rate of [18F]-fluoride from the trifluoroborate; type: physicochemical; details: 200 mM PO4, pH 7.5, 100 mM [19F]-NaF
Procedure: [^18F] Isotope Exchange—Using the Low-Activity Radiochemical Synthesis of [^18/19F]-(3).
In order to assay the dissociation rate of [^18F]-fluoride from the trifluoroborate (3), The six aliquots of Sample-A (each 10 μL, 1.5 nmol [^18/19F]-(3), 0.45 μCi (t=184 min)) were diluted 30 fold into 300 μL of a 200 mM PO4, pH 7.5, 100 mM [^19F]—NaF solution at different times. A volume of 0.5 μL of each dilution was spotted on a TLC plate which is run 2 inches in a 5:95 NH4OH:ethanol developing solution. Each spot that was deposited on the plate had spent increasing amounts of time in the solution containing a vast excess of [^19F]-fluoride. Following autoradiography, a rate constant for the isotopic exchange of [^18F]-fluoride from [^18/19F]-(3) was calculated.

[2] = Rate of defluorination (18F/19F isotopic exchange) of aryltrifluoroborates, TLC autoradiography; type: physicochemical; details: FIGS. 1-4, time points 0-180 minutes after labeling
Procedure: A solution of boronic acid/ester at approximately 200 mM in 3 μl DMF is made, and 3 μL of aqueous fluoride at 800 mM added, comprising ˜1 mCi of carrier free ^18F (˜0.6 pmol of ^18F) and carrier ^19F in the form of KHF2 in 800 mM HOAc at pH 3-4, in a total volume of 10 μl at 10 mM total, providing 100 nmol of total fluoride at a pH of 4.5. Following a one hour labeling reaction at room temperature, the extent of fluorination as well as the stability with regards to isotopic exchange is evaluated by thin layer chromotography TLC as described below.
1 μL of the fluorination mix is diluted 1:100 in 200 mM phosphate buffer pH 7.5, 100 mM K^19F and allowed to equilibrate. A “zero” time point is taken, consisting of 1 μL of the fluorination mix added to the above phosphate-KF solution, mixed and then 0.5 μL of this dilution is immediately spotted on a TLC plate. […] A separate dilution is made for each time point. Spots are dried on the plate briefly in ambient air. […]
Once completed, an aliquot (1.5 μL) from the fluorination reaction solution is the added to a volume of 300 μL of a chase solution containing 200 mM phosphate and 100 mM KF (pH 7.5). […] Autoradiograms are then generated and analyzed by a phosphoimager. The densities of the free fluoride spot and the ArBF3 spot are quantified. […]

Structure (SMILES) | period in which 10% of the fluoride is solvolytically liberated [1] | retention of the fluorine radioisotope (18F) on TLC autoradiogram [2]
O=C1N[C@H]2[C@H](CS[C@H]2CCCCC(=O)N2CCN(C(=O)c3c(F)cc(F)c([B-](F)(F)F)c3F)CC2)N1 [(3), (2-(1,3,5-trifluoro-4-(trifluoroboryl)benzoyl)piperazin-1-yl) biotin] | ≥ 833 min | –
O=C(O)c1cccc(B(O)O)c1 [Compound 12] | – | retain the fluorine radioisotope longer than compounds 10 or 19
OB(O)c1cccc(F)c1F [Compound 22] | – | retain the fluorine radioisotope longer than compounds 10 or 19
